# Activity calls are given as the source filed them.
# Tests used:
# [1] = tested on: A-375; assay: proliferation inhibition in MITF-low A375 cells – cell-based, cherry-pick samples, set 2, counter-screen for MITF modulator project, dose response (AID 540335); format: functional; conditions: Homo sapiens
# [2] = target: T1, Heat shock factor protein 1 (Mus musculus, UniProt P38532); assay: decrease of HSF1-responsive luciferase luminescence – cell-based, NIH3T3, dose retest, confirmation (AID 2382); format: functional;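 also: NIH3T3 fibroblasts with HSF1-driven luciferase reporter stressed by proteasome inhibitor MG132; luminescence from HSF1-driven luciferase expression after 8 hours of MG132 stress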
# T1 sequence (P38532 whole entry): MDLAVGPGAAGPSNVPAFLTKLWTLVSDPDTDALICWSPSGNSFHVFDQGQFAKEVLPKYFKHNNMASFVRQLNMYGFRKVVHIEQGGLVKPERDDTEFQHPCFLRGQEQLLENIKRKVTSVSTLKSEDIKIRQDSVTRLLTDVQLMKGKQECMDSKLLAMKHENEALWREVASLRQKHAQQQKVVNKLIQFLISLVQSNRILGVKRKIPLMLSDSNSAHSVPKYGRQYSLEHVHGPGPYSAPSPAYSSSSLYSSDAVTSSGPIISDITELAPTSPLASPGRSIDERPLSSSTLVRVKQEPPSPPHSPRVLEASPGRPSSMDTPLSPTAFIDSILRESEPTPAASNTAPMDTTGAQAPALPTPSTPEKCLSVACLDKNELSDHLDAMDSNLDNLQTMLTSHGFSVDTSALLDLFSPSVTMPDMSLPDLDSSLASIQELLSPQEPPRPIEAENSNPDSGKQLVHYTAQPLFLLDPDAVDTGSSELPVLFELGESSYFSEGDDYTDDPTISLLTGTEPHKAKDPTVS
# [3] = target: T2, Microphthalmia-associated transcription factor (Homo sapiens, UniProt O75030); assay: reducers of TRPM1 reporter luminescence, concentration series – cell-based, SK-MEL-5, cherry-picked, set 3, MITF inhibitor project, dose response (AID 493073); format: functional;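 also: SK-MEL-5 melanoma cells with luciferase driven by the MITF target TRPM1 promoter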
# T2 sequence (O75030 whole entry): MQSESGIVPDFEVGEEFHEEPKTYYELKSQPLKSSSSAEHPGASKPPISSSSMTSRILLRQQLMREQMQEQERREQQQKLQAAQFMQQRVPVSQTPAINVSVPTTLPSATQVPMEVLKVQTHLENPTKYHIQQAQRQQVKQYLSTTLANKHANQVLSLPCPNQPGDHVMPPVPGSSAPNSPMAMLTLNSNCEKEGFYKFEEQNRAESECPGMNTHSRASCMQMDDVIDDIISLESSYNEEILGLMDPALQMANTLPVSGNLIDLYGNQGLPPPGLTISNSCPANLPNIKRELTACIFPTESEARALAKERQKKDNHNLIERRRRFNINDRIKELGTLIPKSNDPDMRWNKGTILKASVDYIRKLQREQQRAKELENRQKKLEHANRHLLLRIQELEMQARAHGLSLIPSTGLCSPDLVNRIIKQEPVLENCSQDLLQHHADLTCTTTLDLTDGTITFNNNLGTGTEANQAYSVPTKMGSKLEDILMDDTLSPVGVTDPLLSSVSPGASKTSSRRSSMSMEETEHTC
# [4] = target: T3, Mitochondrial peptide methionine sulfoxide reductase (Bos taurus, UniProt P54149); format: functional;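 also: absorbance read-out, biochemical high-throughput dose-response screen for MsrA inhibitors, confirmatory; recombinant bovine MsrA coupled to E. coli TrxB with NADPH and selenocystamine; potency is for inhibitors of MsrA activity on DMSO substrate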
# T3 sequence (P54149 whole entry): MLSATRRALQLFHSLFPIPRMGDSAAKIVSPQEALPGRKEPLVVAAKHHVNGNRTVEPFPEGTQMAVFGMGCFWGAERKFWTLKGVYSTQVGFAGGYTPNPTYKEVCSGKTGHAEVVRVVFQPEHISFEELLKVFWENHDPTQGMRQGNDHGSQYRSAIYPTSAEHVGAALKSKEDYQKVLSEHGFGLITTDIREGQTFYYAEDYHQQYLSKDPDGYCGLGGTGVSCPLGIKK
# [5] = target: Low molecular weight phosphotyrosine protein phosphatase (Homo sapiens, UniProt P24666); format: functional; conditions: read-out: IC50_Mean;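 also: Dose-response confirmation assay measuring inhibition of LMPTP enzyme activity by fluorescence intensity read-out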
# [6] = Luminescence Cell-Based Dose Retest to Confirm Inhibitors of Cancer Stem Cells. [Related pubchem assays (depositor defined):AID2717, AID2721]; format: functional; conditions: Homo sapiens
# [7] = tested on: A-375; assay: MITF: Counter assay: A375 proliferation Measured in Cell-Based System Using Plate Reader - 2084-03_Inhibitor_Dose_DryPowder_Activity. [Related pubchem assays (depositor defined):AID488944]; format: functional; conditions: Homo sapiens
# [8] = target: Glycogen synthase kinase-3 beta (Homo sapiens, UniProt P49841); format: functional;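 also: value comes from a broad kinome profiling panel, with GSK3B as the panel member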
# [9] = target: Dual specificity protein kinase CLK4 (Homo sapiens, UniProt Q9HAZ1); format: functional
# [10] = target: cAMP-dependent protein kinase catalytic subunit alpha (Homo sapiens, UniProt P17612); format: functional
# [11] = target: Serine/threonine-protein kinase pim-1 (Homo sapiens, UniProt P11309); format: functional
# [12] = target: Cell division cycle 7-related protein kinase (Homo sapiens, UniProt O00311); format: functional;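 also: value obtained from a kinome-wide kinase panel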
# [13] = target: Homeodomain-interacting protein kinase 2 (Homo sapiens, UniProt Q9H2X6); format: functional;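 also: measured within a kinome-wide kinase profiling panel, HIPK2 being one panel member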
# [14] = target: Interleukin-1 receptor-associated kinase 4 (Homo sapiens, UniProt Q9NWZ3); format: functional
# [15] = target: T4, Methionyl-tRNA synthetase, putative (Trypanosoma brucei brucei, UniProt Q38C91); format: functional, Trypanosoma brucei brucei strain 927/4 GUTat10.1
# [16] = target: T4, Methionyl-tRNA synthetase, putative; format: functional, Trypanosoma brucei brucei strain 927/4 GUTat10.1; remark: listed apart in the source
# [17] = Counterscreen for inhibitors of Trypanosoma brucei methionyl tRNA synthetase (MetRS): Luminescence-based cell-based high throughput dose response assay to identify compounds that are cytotoxic to Jurkat human T lymphocyte cells.; format: functional
# [18] = target: DNA topoisomerase (Yersinia pestis, UniProt A0A2S9PM60); assay: Yersinia topoisomerase I cleavage product accumulation – biochemical, cherry-pick, dose response (AID 588525)
# [19] = tested on: HEK293; assay: SAR Analysis of small molecule inhibitors of B-cell specific antigen receptor-induced NF-kB activation in a HEK-293T cell line using a luminescence assay - Set 2. [Related pubchem assays (depositor defined):AID435022, AID435025, AID489021]; format: functional, cell-based; conditions: Homo sapiens
# [20] = tested on: Jurkat; assay: SAR Analysis of small molecule inhibitors of […] specific antigen receptor-induced NF-kB activation in a Jurkat cell line using a luminescence assay - Set 3. [Related pubchem assays (depositor defined):AID435022, AID435025, AID465]; format: functional, cell-based; conditions: Homo sapiens
# [21] = tested on: HEK293; assay: HEK293T cell viability loss, resazurin readout – resazurin fluorescence, cytotoxicity control for NF-kB activator project, SAR follow-up (AID 493251); format: functional, cell-based; conditions: Homo sapiens
# [22] = target: DNA repair and recombination protein RAD54-like (Homo sapiens, UniProt Q92698); assay: RAD54 Holliday junction migration blockers – biochemical, fluorescence, cherry-picked samples, dose series, confirmation (AID 651657); format: functional
# [23] = target: Cysteine protease ATG4B (Homo sapiens, UniProt Q9Y4P1); format: functional;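 also: Fluorescence-based dose-response confirmation assay measuring inhibition of ATG4B activity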
# [24] = target: Phospholipase A2 (Homo sapiens, UniProt P04054); format: functional;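 also: confirmatory dose-response counterscreen on phospholipase A2, testing hits that came from an ultra-high-throughput screen for ATG4B inhibitors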
# Sequence of Phospholipase A2 (P04054 whole entry): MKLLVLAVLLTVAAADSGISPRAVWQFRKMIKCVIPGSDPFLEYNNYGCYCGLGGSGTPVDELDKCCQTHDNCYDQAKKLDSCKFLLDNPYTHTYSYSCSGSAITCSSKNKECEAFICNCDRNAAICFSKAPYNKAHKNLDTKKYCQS
# T4 sequence (Q38C91 whole entry): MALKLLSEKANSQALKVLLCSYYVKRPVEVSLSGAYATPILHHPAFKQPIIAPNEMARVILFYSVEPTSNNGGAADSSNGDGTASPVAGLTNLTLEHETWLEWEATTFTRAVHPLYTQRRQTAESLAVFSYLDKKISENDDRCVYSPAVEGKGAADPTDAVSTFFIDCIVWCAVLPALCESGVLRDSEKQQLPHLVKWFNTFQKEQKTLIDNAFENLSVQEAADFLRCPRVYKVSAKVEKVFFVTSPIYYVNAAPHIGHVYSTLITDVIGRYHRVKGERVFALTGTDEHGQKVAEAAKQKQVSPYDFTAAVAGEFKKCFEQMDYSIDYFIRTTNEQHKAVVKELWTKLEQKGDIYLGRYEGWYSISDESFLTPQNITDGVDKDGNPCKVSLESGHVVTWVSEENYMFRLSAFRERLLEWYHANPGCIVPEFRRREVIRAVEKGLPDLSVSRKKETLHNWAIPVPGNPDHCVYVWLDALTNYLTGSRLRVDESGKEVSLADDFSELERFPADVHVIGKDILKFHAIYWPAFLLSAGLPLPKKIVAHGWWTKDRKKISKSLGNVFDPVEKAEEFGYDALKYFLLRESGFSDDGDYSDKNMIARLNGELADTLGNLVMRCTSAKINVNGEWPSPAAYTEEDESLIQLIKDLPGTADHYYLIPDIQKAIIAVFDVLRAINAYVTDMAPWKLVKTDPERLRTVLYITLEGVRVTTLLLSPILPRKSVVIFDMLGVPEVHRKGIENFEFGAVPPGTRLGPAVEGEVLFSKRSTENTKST
# Sequence of Glycogen synthase kinase-3 beta (P49841 whole entry): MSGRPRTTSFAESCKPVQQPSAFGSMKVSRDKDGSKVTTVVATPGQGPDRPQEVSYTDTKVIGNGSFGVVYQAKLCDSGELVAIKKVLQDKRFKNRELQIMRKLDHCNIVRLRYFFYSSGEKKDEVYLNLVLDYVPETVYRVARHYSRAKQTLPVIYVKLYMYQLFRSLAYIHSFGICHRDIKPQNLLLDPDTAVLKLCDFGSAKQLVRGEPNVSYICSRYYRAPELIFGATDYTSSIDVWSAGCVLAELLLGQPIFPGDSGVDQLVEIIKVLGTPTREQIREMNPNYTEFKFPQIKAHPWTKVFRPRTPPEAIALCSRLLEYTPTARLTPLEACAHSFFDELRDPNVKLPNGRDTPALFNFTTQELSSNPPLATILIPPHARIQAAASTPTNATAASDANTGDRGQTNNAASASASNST
# Sequence of DNA repair and recombination protein RAD54-like (Q92698 whole entry): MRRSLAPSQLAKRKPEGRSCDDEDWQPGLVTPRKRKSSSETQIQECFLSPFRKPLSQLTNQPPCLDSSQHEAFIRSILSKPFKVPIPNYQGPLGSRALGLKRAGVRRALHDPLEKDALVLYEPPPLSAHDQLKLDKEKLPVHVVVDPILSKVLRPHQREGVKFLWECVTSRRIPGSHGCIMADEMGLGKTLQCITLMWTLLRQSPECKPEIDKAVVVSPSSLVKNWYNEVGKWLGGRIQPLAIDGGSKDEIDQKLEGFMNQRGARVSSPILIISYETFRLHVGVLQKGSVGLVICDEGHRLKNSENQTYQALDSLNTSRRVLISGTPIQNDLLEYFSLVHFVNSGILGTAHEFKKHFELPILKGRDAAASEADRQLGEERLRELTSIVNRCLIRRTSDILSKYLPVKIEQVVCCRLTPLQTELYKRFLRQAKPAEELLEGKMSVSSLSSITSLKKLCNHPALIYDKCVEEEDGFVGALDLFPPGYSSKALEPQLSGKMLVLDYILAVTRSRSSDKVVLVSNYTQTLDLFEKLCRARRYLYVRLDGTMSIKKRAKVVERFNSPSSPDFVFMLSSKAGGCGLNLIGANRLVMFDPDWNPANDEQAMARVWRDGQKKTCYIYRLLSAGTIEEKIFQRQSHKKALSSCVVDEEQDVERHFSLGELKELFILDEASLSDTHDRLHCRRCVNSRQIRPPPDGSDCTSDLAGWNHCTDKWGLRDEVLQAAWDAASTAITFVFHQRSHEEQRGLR
# Sequence of Cell division cycle 7-related protein kinase (O00311 whole entry): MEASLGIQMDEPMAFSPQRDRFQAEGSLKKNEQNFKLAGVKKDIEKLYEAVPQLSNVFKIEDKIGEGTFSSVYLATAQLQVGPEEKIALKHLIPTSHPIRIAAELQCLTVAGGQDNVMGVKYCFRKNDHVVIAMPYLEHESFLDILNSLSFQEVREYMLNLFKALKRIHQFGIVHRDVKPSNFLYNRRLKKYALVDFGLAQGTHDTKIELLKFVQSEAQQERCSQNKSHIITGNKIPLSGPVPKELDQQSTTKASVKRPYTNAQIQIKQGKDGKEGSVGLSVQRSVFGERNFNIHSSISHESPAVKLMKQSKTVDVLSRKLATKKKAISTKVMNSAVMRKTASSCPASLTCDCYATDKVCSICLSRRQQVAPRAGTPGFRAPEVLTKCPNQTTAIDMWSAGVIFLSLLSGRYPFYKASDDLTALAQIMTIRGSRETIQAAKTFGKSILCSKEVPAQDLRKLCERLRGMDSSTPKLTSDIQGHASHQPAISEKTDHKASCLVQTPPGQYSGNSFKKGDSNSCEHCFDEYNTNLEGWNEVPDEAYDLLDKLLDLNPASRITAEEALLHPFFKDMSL
# Sequence of Low molecular weight phosphotyrosine protein phosphatase (P24666 whole entry): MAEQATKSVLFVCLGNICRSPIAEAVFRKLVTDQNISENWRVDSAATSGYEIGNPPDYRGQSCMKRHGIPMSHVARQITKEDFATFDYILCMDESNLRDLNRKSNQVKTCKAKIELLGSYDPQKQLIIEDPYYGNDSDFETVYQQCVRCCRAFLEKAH
# Sequence of Cysteine protease ATG4B (Q9Y4P1 whole entry): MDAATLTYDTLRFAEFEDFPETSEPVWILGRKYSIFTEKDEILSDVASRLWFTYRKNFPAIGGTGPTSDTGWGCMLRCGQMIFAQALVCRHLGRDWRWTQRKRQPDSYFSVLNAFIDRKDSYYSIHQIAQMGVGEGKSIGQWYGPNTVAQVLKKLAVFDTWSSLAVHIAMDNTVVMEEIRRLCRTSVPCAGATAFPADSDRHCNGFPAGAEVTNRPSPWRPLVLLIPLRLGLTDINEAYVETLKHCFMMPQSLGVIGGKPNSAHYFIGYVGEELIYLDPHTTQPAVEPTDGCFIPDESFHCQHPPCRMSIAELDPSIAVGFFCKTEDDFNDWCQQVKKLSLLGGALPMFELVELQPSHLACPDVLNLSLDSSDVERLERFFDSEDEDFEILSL
# Sequence of Dual specificity protein kinase CLK4 (Q9HAZ1 whole entry): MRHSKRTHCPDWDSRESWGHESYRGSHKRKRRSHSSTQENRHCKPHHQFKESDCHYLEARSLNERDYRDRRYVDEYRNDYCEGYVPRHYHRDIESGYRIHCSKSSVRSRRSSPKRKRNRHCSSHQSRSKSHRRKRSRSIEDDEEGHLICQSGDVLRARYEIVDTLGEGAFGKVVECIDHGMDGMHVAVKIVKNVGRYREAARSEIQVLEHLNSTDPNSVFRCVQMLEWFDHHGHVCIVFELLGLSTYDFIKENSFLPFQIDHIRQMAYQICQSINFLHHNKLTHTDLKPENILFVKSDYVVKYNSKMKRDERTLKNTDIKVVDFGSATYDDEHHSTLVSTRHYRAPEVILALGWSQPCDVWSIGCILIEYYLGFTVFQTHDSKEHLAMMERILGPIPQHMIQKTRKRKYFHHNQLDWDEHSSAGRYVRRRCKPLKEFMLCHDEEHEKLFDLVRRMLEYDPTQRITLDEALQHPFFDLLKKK
# Sequence of Serine/threonine-protein kinase pim-1 (P11309 whole entry): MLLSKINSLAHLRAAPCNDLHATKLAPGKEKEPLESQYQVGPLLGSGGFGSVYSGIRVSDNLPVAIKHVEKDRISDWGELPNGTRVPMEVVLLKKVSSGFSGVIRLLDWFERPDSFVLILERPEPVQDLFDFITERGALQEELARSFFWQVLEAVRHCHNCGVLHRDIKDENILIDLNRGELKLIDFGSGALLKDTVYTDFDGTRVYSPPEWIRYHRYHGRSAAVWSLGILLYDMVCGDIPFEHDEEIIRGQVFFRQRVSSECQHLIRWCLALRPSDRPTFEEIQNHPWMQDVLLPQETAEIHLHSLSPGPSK
# Sequence of DNA topoisomerase (A0A2S9PM60 whole entry): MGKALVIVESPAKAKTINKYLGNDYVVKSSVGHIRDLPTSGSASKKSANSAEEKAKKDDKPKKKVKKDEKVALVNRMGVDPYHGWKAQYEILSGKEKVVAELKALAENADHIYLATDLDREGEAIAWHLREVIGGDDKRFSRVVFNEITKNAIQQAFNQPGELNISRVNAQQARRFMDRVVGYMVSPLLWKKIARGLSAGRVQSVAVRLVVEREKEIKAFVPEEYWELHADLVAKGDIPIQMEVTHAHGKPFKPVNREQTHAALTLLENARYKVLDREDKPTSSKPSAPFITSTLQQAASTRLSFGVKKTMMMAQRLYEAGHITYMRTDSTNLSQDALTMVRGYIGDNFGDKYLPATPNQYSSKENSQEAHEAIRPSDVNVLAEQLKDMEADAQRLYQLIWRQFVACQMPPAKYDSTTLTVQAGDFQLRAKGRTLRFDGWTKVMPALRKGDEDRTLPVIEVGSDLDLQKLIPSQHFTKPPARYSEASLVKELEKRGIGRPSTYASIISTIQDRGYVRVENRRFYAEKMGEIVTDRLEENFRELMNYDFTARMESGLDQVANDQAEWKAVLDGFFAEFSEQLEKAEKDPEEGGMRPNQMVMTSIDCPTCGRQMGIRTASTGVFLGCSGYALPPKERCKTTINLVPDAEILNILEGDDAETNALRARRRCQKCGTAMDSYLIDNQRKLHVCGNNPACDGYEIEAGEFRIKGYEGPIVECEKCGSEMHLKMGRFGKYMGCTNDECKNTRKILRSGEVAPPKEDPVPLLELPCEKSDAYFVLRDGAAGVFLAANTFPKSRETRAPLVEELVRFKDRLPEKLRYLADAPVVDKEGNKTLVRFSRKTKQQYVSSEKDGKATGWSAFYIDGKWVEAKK
smiles,measurement,setting,value
C=CCNC1=NN=C(c2ccc3c(c2)OCCO3)CS1,AC50,[1],48.9 µM (active)
same,EC50,[2],5.84 µM (active)
same,AC50,[3],3.37 µM (active)
C/C(=N\Nc1ccc(S(N)(=O)=O)cc1[N+](=O)[O-])c1ccc2c(c1)OCO2,IC50,[4],155 µM (inactive)
O=C(COc1ccc2c(-c3ccccc3)cc(=O)oc2c1)Nc1ccc(CCO)cc1,IC50,[5],40.7 µM (inactive)
O=[N+]([O-])c1ccc(S(=O)(=O)CC(CN2CCCCC2)N2CCCCC2)cc1 (stereo not given),AC50,[6],2.17 µM (active)
same,AC50,[3],4.88 µM (active)
same,AC50,[7],19.9 µM (active)
O=[N+]([O-])c1cccc(-c2nnc3ccc(N4CCCCC4)nn23)c1,Ki,[8],0.0398 µM (active)
same,Ki,[9],0.01 µM (active)
same,Ki,[10],> 7.94 µM (inactive)
same,Ki,[11],0.0316 µM (active)
same,Ki,[12],0.00631 µM (active)
same,Ki,[13],0.0126 µM (active)
same,Ki,[14],10 µM (active)
Cc1c(NS(=O)(=O)c2cccc(C(=O)NCc3cccc(Cl)c3)c2)c(=O)n(-c2ccccc2)n1C,IC50,[15],21.7 µM (inactive)
same,IC50,[16],119 µM (inactive)
same,IC50,[17],83.3 µM (inactive)
Oc1nnc(Cc2ccc(-c3ccc(Cl)cc3)o2)c2ccccc12,AC50,[18],9.08 µM (active)
CCOc1ccc(-c2nc(CSCC(=O)N3CCC(C)CC3)c(C)o2)cc1,IC50,[19],9.87 µM (active)
same,IC50,[20],32.6 µM (inactive)
same,IC50,[21],30 µM (inactive)
O=C(COc1ccc2c(c1)oc(=O)c1ccccc12)NCCCN1CCOCC1,AC50,[22],29.9 µM (active)
COc1ccc(OC)c(-c2cc(C(=O)N3CCCc4ccccc43)no2)c1,IC50,[23],20.1 µM (inactive)
same,IC50,[24],14.8 µM (active)

# — ChEMBL document CHEMBL1201862, “PubChem BioAssay data set” (2004)
